What was measured:
[1] = method code SF-CR+AS, from Korenman, I.; Lineva, S.; Gezikova, N. (1978). Extraction of naphthol-sulfonic acids from aqueous solution. Zh. Prikl. Khim., 51(4)869-871.
[2] = method code SF-HPLC, from DOI: 10.1111/j.2042-7158.1995.tb05807.x, PMID: 7791035; conditions: pH 7.0
[3] = method code SF-HPLC, from DOI: 10.1002/ps.2780130506
[4] = method code SF-AS, from DOI: 10.1002/jps.2600711105; conditions: pH 7.4
[5] = method code SF-HPLC, from DOI: 10.1248/bpb.16.154, PMID: 8364451
[6] = not given; remark: listed apart in the source
[7] = method code SF-RC, from DOI: 10.1016/j.apradiso.2013.03.021, PMID: 23602704; conditions: pH 7.4
[8] = method code SF-CR+AS, from Korenman, I.; Tishchenko, M.; Kombarova, A. (1977). Distribution of dihydroxynaphthalenes between higher alcohols and water. Zh. Prikl. Khim., 50(4)899-901.; conditions: pH 2.0
[9] = not given; remark: listed apart in the source
[10] = not given; remark: listed apart in the source
[11] = method code SF-HPLC, from DOI: 10.1016/0378-5173(85)90011-0
[12] = method code SF-RC, from DOI: 10.1002/jlcr.1525
[13] = method code SF-ESR, from DOI: 10.1111/1523-1747.ep12319780, PMID: 2551971; conditions: pH 7.0
[14] = method code SF, from DOI: 10.1246/bcsj.60.4357
[15] = method code SF, from DOI: 10.1021/ac00105a018
[16] = not given; remark: listed apart in the source
[17] = method code SF-AS, from DOI: 10.1016/s0378-5173(98)00405-0, PMID: 10089287; conditions: pH 7.4
[18] = method code SF-AS, from DOI: 10.1016/0039-9140(66)80126-1, PMID: 18959847; conditions: pH 7.5
[19] = method code SF-HPLC, from DOI: 10.1021/jm701549s, PMID: 18558667; conditions: pH 7.4
[20] = method code SF-RC, from DOI: 10.1016/0006-2952(75)90159-8, PMID: 1168477
[21] = method code SF-HPLC, from DOI: 10.1016/0378-5173(84)90193-5; conditions: pH 4.0
[22] = method code SF, from DOI: 10.1021/jm00002a007, PMID: 7830268
[23] = method code SF, from DOI: 10.1002/jbm.820150603, PMID: 7309762
[24] = not given; remark: listed apart in the source
[25] = not given; remark: listed apart in the source
[26] = method code SF, from DOI: 10.1023/a:1018952108327, PMID: 7855051; conditions: pH 5.0
[27] = method code SF-RC, from Lázníček, M., Waisser, K., Květina, J., Beňo, P., & Tichý, M. (1985). QSAR methods in pharmacokinetic analysis. QSAR in Toxicology and Xenobiochemistry, 249-256.; conditions: pH 1.0
[28] = not given; remark: listed apart in the source
[29] = method code SF, from Korenman, I.; Polumestnaya, I. (1982). Principles of interfacial distribution of certain substituted naphthalenes. Zh. Prikl. Khim., 55(2)364-367.
[30] = method code SF-GLC, from PMID: 6629728; conditions: pH 7.4
[31] = method code SF-AS, from DOI: 10.1016/0005-2744(69)90103-x, PMID: 4387594
[32] = method code SF-AS, from DOI: 10.1002/chin.198419165, PMID: 6653771; conditions: pH 2.5
[33] = method code SF-AS, from DOI: 10.1016/0009-2797(77)90097-7, PMID: 407012; conditions: pH 7.0
[34] = method code SF-AS, from PMID: 6692390; conditions: pH 4.0
[35] = method code SF-AS, from Korenman, Y.; Pazynin, T. (1972). Distribution of nitrosonaphthols between organic solvents and water. J. anal. chem. USSR, 27(4)723-725.; conditions: pH 2.0
[36] = method code SF-AS, from DOI: 10.1271/bbb1961.46.2755
[37] = method code SF-AS, from DOI: 10.1016/s0006-2952(02)01074-2, PMID: 12392818; conditions: pH 7.4
[38] = method code SF-AS, from DOI: 10.1021/jm00297a026, PMID: 5441130
[39] = not given; remark: listed apart in the source
[40] = method code SF-GLC, from DOI: 10.1016/j.chemosphere.2004.08.061, PMID: 15519382
[41] = method code SF-AS, from DOI: 10.1248/cpb.36.1393; conditions: pH 7.4
[42] = method code SF-AS, from DOI: 10.1016/0378-5173(82)90005-9; conditions: pH 3.0
[43] = method code SF-AS, from DOI: 10.1248/cpb.39.1217
[44] = not given; remark: listed apart in the source
[45] = method code …, from Korenman, I.; Polumestnaya, I.; Mezentseva, P. (1979). Investigations of the relationship of extraction of 1-naphthol and some of its derivatives by the method of correlation equations. Zh. Prikl. …; conditions: pH 2.0
[46] = method code SF-HPLC, from DOI: 10.1023/a:1007522626070, PMID: 10714611; conditions: pH 7.4
[47] = method code SF-AS, from DOI: 10.1081/jlc-100100410; conditions: pH 4.0
[48] = method code SF-AS, from DOI: 10.1002/jhrc.1240040906; conditions: pH 5.0

O=S(=O)(O)c1cccc2c(O)cccc12
logP [1]: -0.17

NC(=O)NC(=O)Cc1ccccc1
logD [2]: 0.66

CNC(=O)ON=Cc1ccc(Cl)c(Cl)c1
logP [3]: 2.89

CC(=O)c1nc([N+](=O)[O-])n(CC(C)O)c1C (centres undefined)
logD [4]: 0.37

O=C(O)CNC(=O)c1cc(O)ccc1O
logP [5]: 0.28

Clc1ccc2ccccc2c1
logP: 4.07

O=c1[nH]c(-c2ccccc2)nc2nn[nH]c12
logP [6]: 1.27

Nc1nc(=O)n([C@H]2C[C@H](O)[C@@H](CO)O2)cc1I
logD [7]: -0.94

Oc1cc(O)c2ccccc2c1
logD [8]: 1.97

CCCCC1C(=O)NC(=O)N(C)C1=O (centres undefined)
logP [9]: 1.1

Nc1ccc([N+](=O)[O-])c2ccccc12
logP [10]: 1.77

CCCC(=O)n1ncc2c(=O)[nH]cnc21
logP [11]: 0.85

O=C(O)CN(CCN1CCN=C1[N+](=O)[O-])CC(=O)O
logP [12]: -0.82

CC1(C)CCC(C)(C)N1[O]
logD [13]: 1

CC(C)c1cc([N+](=O)[O-])cc([N+](=O)[O-])c1O
logP [14]: 3.1

CCCc1ccc(O)cc1
logP [15]: 3

CC(=O)Nc1ccc(OC(=O)CBr)cc1
logP [16]: 1.08

Cc1cc(=O)n2ccccc2n1
logD [17]: 0.6

Cc1ccc2cccc(O)c2n1
logD [18]: 2.33

CN(C)C(=O)c1ccc(Br)cc1
logD [19]: 1.83

CCCN(C(C)=O)C(C)C
logP [20]: 1.48

O=c1[nH]cc(F)c(=O)n1Oc1ccccc1
logD [21]: 0.8

CCOP(=O)(OCC)C1(C)CCC=[N+]1[O-] (centres undefined)
logP [22]: -1.22

C=C(C)C(=O)OCCCC
logP [23]: 2.6

ClC1=C(Cl)C2(Cl)C3C(Cl)C=CC3C1(Cl)C2(Cl)Cl (centres undefined)
logP [24]: 5.58

Clc1ccc2ccc(Cl)cc2c1
logP [25]: 4.81

CN1C(CCl)Nc2cc(Cl)c(S(N)(=O)=O)cc2S1(=O)=O (centres undefined)
logD [26]: 0.6

O=C(O)CCc1ccccc1I
logD [27]: 2.47

COC(=O)Nc1nc2ccccc2[nH]1
logP [28]: 1.75

O=S(=O)(O)c1cc(O)c2ccccc2c1
logP [29]: -0.18

C1CCC(C2CO2)CC1 (centres undefined)
logD [30]: 2.43

CCCNc1ccccc1
logP [31]: 2.45

O=C(O)c1ccccc1NCCO
logD [32]: 1.16

CN(C)c1nc(N(C)C)nc(N(C)O)n1
logD [33]: 1.61

COc1ccc(NC(=O)N(C)N=O)cc1
logD [34]: 0.64

O=Nc1c(O)ccc2ccccc12
logD [35]: 2.28

O=C1COC(=O)N1c1ccccc1
logP [36]: 0.93

OC1CCOc2ccccc21 (centres undefined)
logD [37]: 1.31

CCCCn1cnc2c(N)ncnc21
logP [38]: 1.25

Cn1c(C(F)(F)F)nc2ccccc21
logP [39]: 3.98

Cn1c(Cl)c(Br)c(Cl)c1-c1c(Br)c(Br)c(Cl)n1C
logP [40]: 6.5

[O-][n+]1ccc(Cl)c2ccc(Cl)cc21
logD [41]: 1.85

O=C1NC(=S)NC(=O)C12CCCCC2
logD [42]: 1.78

Cc1nccnc1CC(C)C
logP [43]: 1.96

NC1CC1c1ccccc1 (centres undefined)
logP [44]: 1.49

O=Nc1c(Br)cc2ccccc2c1O
logD [45]: 2.93

CCn1nnc(C2=CCC[N+](C)([O-])C2)n1 (centres undefined)
logD [46]: -1.5

Nc1ccc(S(=O)(=O)Nc2ccc(Cl)nn2)cc1
logD [47]: 0.86

NC(=O)c1cnc2n(c1=O)CCCC2
logD [48]: -0.38
